# Experimental data reported in ChEMBL document CHEMBL3046333, “Synthesis and bioevaluation of novel analogues of justicidin A” (Med Chem Res, 2010).
# Test system: HepG2
# Assay: Cytotoxicity against Homo sapiens (human) HepG2 cells after 3 days by MTT assay
# Assay type: functional, cell-based
# Conditions: HepG2, 72 h
smiles,measurement,value
CCCCCOc1c2c(c(-c3ccc4c(c3)OCO4)c3cc(OC)c(OC)cc13)C(=O)OC2,IC50,291 µM
COc1cc2c(OCCCBr)c3c(c(-c4ccc5c(c4)OCO5)c2cc1OC)C(=O)OC3,IC50,161 µM
COc1cc([C@@H]2c3cc4c(cc3[C@@H](O[C@@H]3O[C@@H]5CO[C@@H](C)O[C@H]5[C@H](O)[C@H]3O)[C@H]3COC(=O)[C@H]23)OCO4)cc(OC)c1O [ETOPOSIDE],IC50,427 µM
COc1cc2c(OCCCCBr)c3c(c(-c4ccc5c(c4)OCO5)c2cc1OC)C(=O)OC3,IC50,155 µM
COc1cc2c(O)c3c(c(-c4ccc5c(c4)OCO5)c2cc1OC)C(=O)OC3 [DIPHYLLIN],IC50,> 500 µM
CCCCOc1c2c(c(-c3ccc4c(c3)OCO4)c3cc(OC)c(OC)cc13)C(=O)OC2,IC50,127 µM
COc1cc2c(OCCCCCBr)c3c(c(-c4ccc5c(c4)OCO5)c2cc1OC)C(=O)OC3,IC50,207 µM
COc1cc2c(OC)c3c(c(-c4ccc5c(c4)OCO5)c2cc1OC)C(=O)OC3 [JUSTICIDIN A],IC50,163 µM
COc1cc2c(OCCCCCCBr)c3c(c(-c4ccc5c(c4)OCO5)c2cc1OC)C(=O)OC3,IC50,167 µM
CCOc1c2c(c(-c3ccc4c(c3)OCO4)c3cc(OC)c(OC)cc13)C(=O)OC2,IC50,141 µM
COc1cc2c(OCCBr)c3c(c(-c4ccc5c(c4)OCO5)c2cc1OC)C(=O)OC3,IC50,263 µM
CCCOc1c2c(c(-c3ccc4c(c3)OCO4)c3cc(OC)c(OC)cc13)C(=O)OC2,IC50,152 µM
